Tests used:
[1] = molecular target: T1, recombinant soluble rat CD73 (Rattus norvegicus, UniProt P21588); assay: CD73 enzyme inhibition assay with [2,8-3H]AMP, soluble rat CD73; type: biochemical; settings: [2,8-3H]AMP (5 μM) as substrate; read-out: Rat soluble CD73 Ki ± SEM
T1 construct: glutathione-S-transferase fusion protein of soluble rat CD73; glutathione-S-transferase (GST); made in house; host or cells: Sf9 insect cells
T1 sequence (P21588 29-551 limits assumed): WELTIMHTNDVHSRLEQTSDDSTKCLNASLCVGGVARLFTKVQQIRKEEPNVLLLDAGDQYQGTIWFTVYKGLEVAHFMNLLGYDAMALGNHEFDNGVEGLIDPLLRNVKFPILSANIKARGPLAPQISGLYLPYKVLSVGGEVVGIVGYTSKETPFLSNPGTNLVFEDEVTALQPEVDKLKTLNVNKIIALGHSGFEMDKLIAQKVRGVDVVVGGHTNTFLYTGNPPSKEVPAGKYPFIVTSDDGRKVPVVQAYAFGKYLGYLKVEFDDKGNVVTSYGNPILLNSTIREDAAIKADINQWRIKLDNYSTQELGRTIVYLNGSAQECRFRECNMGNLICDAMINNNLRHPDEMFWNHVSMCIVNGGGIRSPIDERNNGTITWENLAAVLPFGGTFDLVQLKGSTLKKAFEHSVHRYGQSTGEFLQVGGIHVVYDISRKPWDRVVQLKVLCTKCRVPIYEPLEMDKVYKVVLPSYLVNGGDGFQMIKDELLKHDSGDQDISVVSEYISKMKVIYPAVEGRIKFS
Description: Compound 2b, its precursor 1, and 20 were investigated for their CD73-inhibitory potency using tritium-labeled AMP as a substrate.^20 After incubation with CD73, non-hydrolyzed substrate and inorganic phosphate were precipitated using a solution of lanthanum chloride, and the precipitate was separated from the solution containing the reaction product [2,8-^3H]adenosine by filtration through GF/B glass fiber filters (WhatmanTM GE Healthcare, Chicago, IL, USA) using a cell harvester (M-48, Brandel, Gaitherburg, MD, USA). The filtrates (ca. 1.8 mL each) were transferred to scintillation vials, scintillation cocktail ULTIMA Gold XR (PerkinElmer, Waltham, MA, USA) was added (5 mL), and the radioactivity esd quantified by scintillation counting. CD73 preparations were (1) recombinant soluble human CD73,^13 (2) recombinant soluble rat CD73,^21 both expressed in Spodoptera frugiperda 9 (Sf) cells, (3) membrane preparations of MDA-MB-231 cells,^16 a human triple-negative breast cancer cell line with high expression of CD73,^18 and (4) membrane preparations of the 4T1.2 cell line, a mouse CD73-expressing breast cancer cell line.^22 The potency of the compounds was determined by measurements of full concentration-inhibition curves. K values were calcuated from the obtained IC50 values employing the Cheng-Prusoff equation.^23 […]

[2] = molecular target: T2, recombinant soluble human CD73 (Homo sapiens, UniProt P21589, T376A); assay: CD73 enzyme inhibition assay with [2,8-3H]AMP, soluble human CD73; type: biochemical; settings: [2,8-3H]AMP (5 μM) as substrate; Ki from IC50 by Cheng-Prusoff; read-out: Human soluble CD73 Ki ± SEM
T2 construct: mature human CD73 (residues 27-549) fused to 6×His-tag at the C-terminus; 6xHis (C); made in house; host or cells: Spodoptera frugiperda Sf9 insect cells (baculovirus, pAcGP67B vector)
T2 sequence (P21589 27-549 T376A): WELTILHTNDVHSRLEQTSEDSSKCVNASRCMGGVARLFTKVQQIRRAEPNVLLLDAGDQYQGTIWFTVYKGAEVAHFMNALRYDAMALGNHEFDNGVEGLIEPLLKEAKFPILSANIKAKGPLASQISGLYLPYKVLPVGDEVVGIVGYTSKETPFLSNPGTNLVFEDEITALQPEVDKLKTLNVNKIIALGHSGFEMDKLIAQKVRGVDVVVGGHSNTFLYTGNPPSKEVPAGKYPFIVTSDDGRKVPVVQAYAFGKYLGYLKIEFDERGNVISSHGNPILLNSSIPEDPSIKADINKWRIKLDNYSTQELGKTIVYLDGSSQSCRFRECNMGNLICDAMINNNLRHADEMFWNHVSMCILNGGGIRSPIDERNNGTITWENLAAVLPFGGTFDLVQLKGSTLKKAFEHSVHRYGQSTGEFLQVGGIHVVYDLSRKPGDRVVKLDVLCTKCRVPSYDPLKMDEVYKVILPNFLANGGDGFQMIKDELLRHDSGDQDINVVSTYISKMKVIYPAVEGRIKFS
Description: Compound 2b, its precursor 1, and 20 were investigated for their CD73-inhibitory potency using tritium-labeled AMP as a substrate.^20 After incubation with CD73, non-hydrolyzed substrate and inorganic phosphate were precipitated using a solution of lanthanum chloride, and the precipitate was separated from the solution containing the reaction product [2,8-^3H]adenosine by filtration through GF/B glass fiber filters (WhatmanTM GE Healthcare, Chicago, IL, USA) using a cell harvester (M-48, Brandel, Gaitherburg, MD, USA). The filtrates (ca. 1.8 mL each) were transferred to scintillation vials, scintillation cocktail ULTIMA Gold XR (PerkinElmer, Waltham, MA, USA) was added (5 mL), and the radioactivity esd quantified by scintillation counting. CD73 preparations were (1) recombinant soluble human CD73,^13 (2) recombinant soluble rat CD73,^21 both expressed in Spodoptera frugiperda 9 (Sf) cells, (3) membrane preparations of MDA-MB-231 cells,^16 a human triple-negative breast cancer cell line with high expression of CD73,^18 and (4) membrane preparations of the 4T1.2 cell line, a mouse CD73-expressing breast cancer cell line.^22 The potency of the compounds was determined by measurements of full concentration-inhibition curves. K values were calcuated from the obtained IC50 values employing the Cheng-Prusoff equation.^23
Human soluble CD73 was expressed in Spodoptera frugiperda (Sf9) insect cells and purified as previously described.^16 The cDNA encoding for the mature human CD73 (residues 27-549) fused to 6×His-tag at the C-terminus (Genbank accession no. NM_002526) corresponding to the natural variant T376A (P21589/VAR_022091, UniProtKB/Swiss-Prot) was ligated into the pAcGP67B vector. For transfection, 1 μl of the recombinant vector (1000 ng/μl) mixed with 2.5 μl of baculovirus genomic DNA ProEasy™ (AB vector, CA, USA) was used to transfect Sf9 cells grown in Insect-XPRESS™ medium (#BE12-7300, Lonza, Switzerland) supplemented with 10 mg/l gentamicin. […]

Row | Ki [1] | Ki [2] | SMILES
1 | 6.09 ± 0.74 nM | 1.02 ± 0.11 nM | CCCN(Cc1ccc(-c2cn(CCF)nn2)cc1)c1nc(Cl)nc2c1ncn2[C@@H]1O[C@H](COP(=O)(O)CP(=O)(O)O)C(O)C1O (stereo partly shown) [Compound 2]
2 | 18 ± 1.43 nM | 5.96 ± 0.85 nM | O=C(NCCCCCCNC(=O)c1ccc2c(c1)C1(OC2=O)c2ccc(O)cc2Oc2cc(O)ccc21)c1ccc(CNc2nc(Cl)nc3c2ncn3[C@@H]2O[C@H](COP(=O)(O)CP(=O)(O)O)[C@@H](O)[C@H]2O)cc1 [Compound 20, (((((2R,3S,4R,5R)-5-(2-chloro-6-((4-((6-(3′,6′-dihydroxy-3-oxo-3H-spiro[isobenzofuran-1,9′-xanthene]-6-carboxamido)-hexyl)carbamoyl)benzyl)amino)-9H-purin-9-yl)-3,4-dihydroxytetrahydrofuran-2-yl)methoxy)(hydroxy)phosphoryl)methyl)phosphonic acid]

Reference: patent US20250382322A1, “DIAGNOSTICS FOR DETECTING ECTO-5'-NUCLEOTIDASE (CD73)” (EBERHARD KARLS UNIVERSITÄT TÜBINGEN, priority 2022, published 2025)
